Data set [1] concerns ICAM-1 induction in BEAS2B cells. In words: Poly I:C-induced ICAM-1 induction in BEAS2B cells. The following applies: Homo sapiens, BEAS-2B, read-out: PolyIC/ICAM1 IC50 BEAS2B. It counts as cell-based, human. The method, boiled down: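 Human bronchial epithelial BEAS2B cells were pre-incubated with compound for 2 hr, then transfected with 1 μg/mL poly I:C. After 18 hr, surface ICAM-1 was measured by cell-based ELISA (OD450-655) and normalized to crystal violet cell counts (OD595). IC50 came from inhibition versus vehicle across the concentration-response curve.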

For data set [2], the system named is TNFα release in THP-1 cells. Description: LPS-induced TNFα release in THP-1 cells. The format is cell-based, human. The following applies: Homo sapiens. In outline:
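Human monocytic THP-1 cells stimulated with 3 μg/mL E. coli LPS for 4 hr; supernatant TNFα measured by sandwich ELISA. Inhibition at each concentration versus vehicle control, IC50 from concentration-response curve.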

The next data set has as its target T1, p38 MAPKγ (MAPK12) (Homo sapiens, UniProt P53778).
T1 construct: purchased Invitrogen
T1 sequence (P53778 1-367): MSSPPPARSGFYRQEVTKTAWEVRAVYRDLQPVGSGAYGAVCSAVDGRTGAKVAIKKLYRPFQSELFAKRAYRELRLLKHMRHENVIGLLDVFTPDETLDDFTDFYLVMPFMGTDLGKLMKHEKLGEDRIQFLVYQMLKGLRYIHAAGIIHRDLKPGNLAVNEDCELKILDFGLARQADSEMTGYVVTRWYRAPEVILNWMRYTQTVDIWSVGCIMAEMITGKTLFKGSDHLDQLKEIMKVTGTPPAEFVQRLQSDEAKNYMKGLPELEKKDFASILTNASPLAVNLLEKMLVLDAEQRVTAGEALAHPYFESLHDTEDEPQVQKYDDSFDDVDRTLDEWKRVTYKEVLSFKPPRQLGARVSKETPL
Description: Enzyme inhibition assay (FRET, Z-LYTE), p38 MAPKγ. It counts as biochemical. As to conditions: read-out: Enzyme Inhibition IC50 p38γ. The method, boiled down:
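Recombinant phosphorylated p38 MAPKγ preincubated 2 h at RT with compound in HEPES buffer, then 2 μM FRET peptide and 100 μM ATP added for 1 h; protease development 1 h. Coumarin/fluorescein emission ratio gave phosphorylation; IC50 from concentration-response versus uninhibited control.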

Data set [3] concerns IL-8 release in d-U937 cells. In words: LPS-induced IL-8 release in d-U937 cells. It counts as cell-based, human. The following applies: Homo sapiens, dU937. The method, boiled down:
(§1)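 PMA-differentiated (100 ng/ml, 48–72 hr) U937 macrophage-type cells pre-incubated 2 hr with compound, then stimulated 4 hr with 0.1 μg/mL E. coli O111:B4 LPS; supernatant TNFα and IL-8 measured by sandwich ELISA. TNFα inhibition expressed relative to 10 μg/mL BIRB796, giving REC50; IL-8 inhibition versus vehicle, giving IC50.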

The test system of data set [4] is TNFα release in d-U937 cells. In words: LPS-induced TNFα release in d-U937 cells. The format is cell-based, human. As to conditions: Homo sapiens, dU937, relative to 10 μg/mL BIRB796, read-out: LPS/TNFα REC50 d-U937. The method, boiled down: as §1
In data set [5] the test system is Differentiated U937 cells. Description: Cell viability MTT assay. It counts as cell-based, human. The following applies: negative = apparent increase in viability; for MTT Assay (Viability) 4 h d-U937, percentage loss of cell viability: 4 hr in 5% FCS; for MTT Assay (Viability) 24 h d-U937, percentage loss of cell viability: 24 h in 10% FCS. The method, boiled down: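 Differentiated U937 cells pre-incubated with compound either 4 hr in 5% FCS or 24 h in 10% FCS, then 1 hr MTT. Formazan dissolved in DMSO, absorbance at 550 nm. Percentage viability loss relative to 0.5% DMSO vehicle; apparent increases appear as negative percentages.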

In data set [6] the target is T2, p38 MAPKα isoform (MAPK14) (Homo sapiens, UniProt Q16539).
T2 construct: purchased Invitrogen
Description: Enzyme inhibition assay (FRET, Z-LYTE), p38 MAPKα via MAPKAP-K2 activation. It counts as biochemical. As to conditions: read-out: Enzyme Inhibition IC50 p38α. In outline: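 Recombinant p38 MAPKα was preincubated with compound for 2 h at RT. Its activity was measured indirectly through activation/phosphorylation of downstream MAPKAP-K2, with a Z-LYTE FRET peptide read-out (coumarin/fluorescein ratio) after a 1 h development step. IC50 came from concentration-response curves of percent inhibition versus an uninhibited control.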

The record followed here is US10000471B2, “Pyrazole P38 map kinase inhibitors” (Respivert Limited, priority 2010, dated 2018).

T2 sequence (Q16539 whole entry, canonical isoform): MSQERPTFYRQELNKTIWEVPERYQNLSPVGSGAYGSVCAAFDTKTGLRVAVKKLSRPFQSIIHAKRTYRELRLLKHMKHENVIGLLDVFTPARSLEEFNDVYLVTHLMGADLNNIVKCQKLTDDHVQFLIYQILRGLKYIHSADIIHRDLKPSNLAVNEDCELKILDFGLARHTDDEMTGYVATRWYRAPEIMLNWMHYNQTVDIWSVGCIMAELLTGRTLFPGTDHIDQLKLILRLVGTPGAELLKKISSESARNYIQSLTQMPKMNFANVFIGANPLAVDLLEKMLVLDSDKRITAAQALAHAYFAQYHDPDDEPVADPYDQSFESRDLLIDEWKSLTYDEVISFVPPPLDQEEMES

For the compound `COCC(=O)Nc1cc(Oc2c(NC(=O)Nc3cc(C(C)(C)C)nn3-c3ccc(C)cc3)ccc(F)c2F)ccn1` [Example 88, N-(4-(6-(3-(3-tert-butyl-1-p-tolyl-1H-pyrazol-5-yl)ureido)-2,3-difluorophenoxy)pyridin-2-yl)-2-methoxyacetamide], the IC50 is 1690 nM in data set [1]; 989 nM in data set [2]; over 17700 nM on p38 MAPKγ (MAPK12); over 1770 nM in data set [3]; 2090 nM in data set [6]. The EC50 in data set [4] was 27 nM. Also, the “MTT Assay (Viability) 4 h d-U937, percentage loss of cell viability” value in data set [5] amounted to 12.3%. Further, in data set [5], the “MTT Assay (Viability) 24 h d-U937, percentage loss of cell viability” value is recorded as 10.0%.
Consider `COCC(=O)Nc1cc(Oc2ccc(NC(=O)Nc3cc(C(C)(C)C)nn3-c3ccc(C)cc3)c(Cl)c2Cl)ncn1` [Example 89, N-(6-(4-(3-(3-tert-butyl-1-p-tolyl-1H-pyrazol-5-yl)ureido)-2,3-dichlorophenoxy)pyrimidin-4-yl)-2-methoxyacetamide], for which the IC50 in data set [1] worked out at 1.8 nM; in data set [2], 1.7 nM; on p38 MAPKγ (MAPK12), 175 nM; in data set [3], 13.4 nM; in data set [6] it was 58.8 nM. Also, the EC50 in data set [4] was found to be 0.3 nM. Moreover, the “MTT Assay (Viability) 4 h d-U937, percentage loss of cell viability” value in data set [5] is on record as −49.9%. Further, in data set [5], the “MTT Assay (Viability) 24 h d-U937, percentage loss of cell viability” value was −7.5%.
As to `COCC(=O)Nc1nccc(Oc2ccc(NC(=O)Nc3cc(C(C)(C)C)nn3-c3ccc(C)cc3)c(Cl)c2Cl)n1` [Example 90, N-(4-(4-(3-(3-tert-butyl-1-p-tolyl-1H-pyrazol-5-yl)ureido)-2,3-dichlorophenoxy)pyrimidin-2-yl)-2-methoxyacetamide], the IC50 is 6.8 nM in data set [1]; 1.3 nM in data set [2]; 126 nM at p38 MAPKγ (MAPK12); 2.3 nM in data set [3]; 45.4 nM in data set [6]. The EC50 in data set [4] amounted to 1.3 nM. In data set [5], the “MTT Assay (Viability) 4 h d-U937, percentage loss of cell viability” value is recorded as −26.8%. Further, the “MTT Assay (Viability) 24 h d-U937, percentage loss of cell viability” value in data set [5] is recorded as −0.5%.
`COCC(=O)Nc1cc(Oc2ccc(NC(=O)Nc3cc(C(C)(C)C)nn3-c3cccc(CO)c3)c(Cl)c2Cl)ncn1` [Example 92, N-(6-(4-(3-(3-tert-butyl-1-(3-hydroxymethylphenyl)-1H-pyrazol-5-yl)ureido)-2,3-dichlorophenoxy)pyrimidin-4-yl)-2-methoxyacetamide]: the IC50 was determined as 1.9 nM in data set [1]; 14.2 nM in data set [2]; 165 nM at p38 MAPKγ (MAPK12); 9.9 nM in data set [3]; 25.8 nM in data set [6]. Moreover, the EC50 in data set [4] was determined as 0.9 nM. Further, the “MTT Assay (Viability) 4 h d-U937, percentage loss of cell viability” value in data set [5] is reported as −14.4%. Moreover, the “MTT Assay (Viability) 24 h d-U937, percentage loss of cell viability” value in data set [5] amounted to 81.0%.
As to `COCC(=O)Nc1cc(Oc2ccc(NC(=O)Nc3cc(C(C)(C)C)nn3-c3ccc(CO)cc3)c(Cl)c2Cl)ncn1` [Example 93, N-(6-(4-(3-(3-tert-butyl-1-(4-hydroxymethylphenyl)-1H-pyrazol-5-yl)ureido)-2,3-dichlorophenoxy)pyrimidin-4-yl)-2-methoxyacetamide], the IC50 is 0.5 nM in data set [1]; 0.8 nM in data set [2]; 160 nM on p38 MAPKγ (MAPK12); 19.2 nM in data set [3]; 8.9 nM in data set [6]. The EC50 in data set [4] was determined as 1.3 nM. Further, in data set [5], the “MTT Assay (Viability) 4 h d-U937, percentage loss of cell viability” value is listed as −1.4%. The “MTT Assay (Viability) 24 h d-U937, percentage loss of cell viability” value in data set [5] is 91.5%.
Regarding `COCC(=O)Nc1nccc(Oc2ccc(NC(=O)Nc3cc(C(C)(C)C)nn3-c3ccc(CO)cc3)c(Cl)c2Cl)n1` [Example 94, N-(4-(4-(3-(3-tert-butyl-1-(4-hydroxymethylphenyl)-1H-pyrazol-5-yl)ureido)-2,3-dichlorophenoxy)pyrimidin-2-yl)-2-methoxyacetamide], the IC50 was 8.9 nM in data set [1]; 1 nM in data set [2]; 123 nM on p38 MAPKγ (MAPK12); 21.6 nM in data set [3]; 17 nM in data set [6]. In addition, in data set [4], the EC50 was found to be 0.6 nM. Besides, the “MTT Assay (Viability) 4 h d-U937, percentage loss of cell viability” value in data set [5] stood at 2.3%. The “MTT Assay (Viability) 24 h d-U937, percentage loss of cell viability” value in data set [5] is given as 76.6%.
For the compound `CNC(=O)Nc1cc(Oc2ccc(NC(=O)Nc3cc(C(C)(C)C)nn3-c3ccc(C)cc3)c(Cl)c2Cl)ncn1` [Example 95, 1-(3-tert-butyl-1-p-tolyl-1H-pyrazol-5-yl)-3-(2,3-dichloro-4-(6-(3-methylureido)pyrimidin-4-yloxy)phenyl)urea], the IC50 was determined as 1.1 nM in data set [1]; 1.6 nM in data set [2]; 172 nM on p38 MAPKγ (MAPK12); 0.2 nM in data set [3]; 29.9 nM in data set [6]. In addition, the EC50 in data set [4] was found to be 0.2 nM. For the same compound, the “MTT Assay (Viability) 4 h d-U937, percentage loss of cell viability” value in data set [5] is −38.0%. Besides, the “MTT Assay (Viability) 24 h d-U937, percentage loss of cell viability” value in data set [5] came to 22.5%.
Take `CNC(=O)Nc1nccc(Oc2ccc(NC(=O)Nc3cc(C(C)(C)C)nn3-c3ccc(C)cc3)c(Cl)c2Cl)n1` [Example 96, 1-(3-tert-butyl-1-p-tolyl-1H-pyrazol-5-yl)-3-(2,3-dichloro-4-(2-(3-methylureido)pyrimidin-4-yloxy)phenyl)urea]: the IC50 in data set [1] was 30 nM; in data set [2], 2.6 nM; on p38 MAPKγ (MAPK12), 152 nM; in data set [3] it was 1.9 nM; in data set [6] it was 21.2 nM. For the same compound, the EC50 in data set [4] amounted to 0.2 nM. Further, the “MTT Assay (Viability) 4 h d-U937, percentage loss of cell viability” value in data set [5] is recorded as −16.1%. For the same compound, in data set [5], the “MTT Assay (Viability) 24 h d-U937, percentage loss of cell viability” value is listed as −13.4%.
Take `CNC(=O)Nc1cc(Oc2ccc(NC(=O)Nc3cc(C(C)(C)C)nn3-c3ccc(OC)cc3)c(Cl)c2Cl)ncn1` [Example 97, 1-(3-tert-butyl-1-(4-methoxyphenyl)-1H-pyrazol-5-yl)-3-(2,3-dichloro-4-(6-(3-methylureido)pyrimidin-4-yloxy)phenyl) urea]: the IC50 in data set [1] turned out to be 1.2 nM; in data set [2] it was 1.4 nM; at p38 MAPKγ (MAPK12), 203 nM; in data set [3], 0.1 nM; in data set [6], 33.2 nM. In addition, the EC50 in data set [4] came out at 0.1 nM. For the same compound, the “MTT Assay (Viability) 4 h d-U937, percentage loss of cell viability” value in data set [5] was −27.2%. Besides, the “MTT Assay (Viability) 24 h d-U937, percentage loss of cell viability” value in data set [5] worked out at 32.9%.
In the case of `CNC(=O)Nc1nccc(Oc2ccc(NC(=O)Nc3cc(C(C)(C)C)nn3-c3ccc(OC)cc3)c(Cl)c2Cl)n1` [Example 98, 1-(3-tert-butyl-1-(4-methoxyphenyl)-1H-pyrazol-5-yl)-3-(2,3-dichloro-4-(2-(3-methylureido)pyrimidin-4-yloxy)phenyl) urea], the IC50 in data set [1] was 4.1 nM; in data set [2] it was 1.4 nM; at p38 MAPKγ (MAPK12), 101 nM; in data set [3] it was 2.7 nM; in data set [6], 32.5 nM. Moreover, the EC50 in data set [4] came out at 1.9 nM. In data set [5], the “MTT Assay (Viability) 4 h d-U937, percentage loss of cell viability” value was −25.9%. The “MTT Assay (Viability) 24 h d-U937, percentage loss of cell viability” value in data set [5] was −29.3%.
For `CNC(=O)Nc1cc(Oc2ccc(NC(=O)Nc3cc(C(C)(C)C)nn3-c3ccc(CO)cc3)c(Cl)c2Cl)ncn1` [Example 99, 1-(3-tert-butyl-1-(4-hydroxymethylphenyl)-1H-pyrazol-5-yl)-3-(2,3-dichloro-4-(6-(3-methylureido)pyrimidin-4-yloxy)phenyl)urea], the IC50 came to 3.2 nM in data set [1]; 1.1 nM in data set [2]; 145 nM on p38 MAPKγ (MAPK12); 6.9 nM in data set [3]; 23.9 nM in data set [6]. In data set [4], the EC50 was 1 nM. In addition, the “MTT Assay (Viability) 4 h d-U937, percentage loss of cell viability” value in data set [5] is recorded as 3.7%. Moreover, in data set [5], the “MTT Assay (Viability) 24 h d-U937, percentage loss of cell viability” value was 92.4%.
